Key:
[1] = tested on: guanosine monophosphate (GMP); experiment: GMP binding (metallation) assay, HPLC; conditions: complex 250 μM, GMP 750 μM, 10 mM phosphate buffer pH 7.5, 100 mM NaCl
Method: High-performance liquid chromatography (HPLC) was carried out using Agilent 1100 liquid chromatography-mass spectrometer equipment. Analytical HPLC was carried out using a Phenomenex Luna-C18 reversed-phase analytical column (10×250 mm, 5 μm), 1 mL/min, with different gradients (see below). […] Electrospray ionization mass spectrometry (ESI/MS) was performed with an Agilent 1100 Series LC/MSD VL G1956A model in positive polarity mode.
First, guanosine monophosphate (GMP) metallating capacity of complex 1 was studied. To that end, complex 1 (250 μM) was mixed with 3 equivalents of GMP (750 μM) in 10 mM phosphate buffer (pH=7.5) and 100 mM NaCl.
To confirm that GMP metallation is completely orthogonal, competitive experiments were carried out with the other three nucleotides (AMP, CMP, and TMP). Specifically, complex 1 (250 μM) was mixed with GMP (3 equiv, 750 μM), AMP (3 equiv, 750 μM), TMP (3 equiv, 750 μM), and CMP (3 equiv, 750 μM) in 10 mM phosphate buffer (pH=7.5) and 100 mM NaCl.
To that end, complex 1 (250 μM) was mixed with GMP (3 equiv, 750 μM) in the presence of H-Lys(Boc)-OH (3 equiv, 750 μM) or Ac-Cys-OH (3 equiv, 750 μM) in 10 mM phosphate buffer (pH=7.5) and 100 mM NaCl.
Complex 4 (250 μM) was mixed with 3 equivalents of GMP (750 μM) in 10 mM phosphate buffer (pH=7.5) and 100 mM NaCl.

[2] = tested on: c-MYC; experiment: c-MYC protein expression by Western blot in PDAC cells; type: cell-based
Method: FIG. 17. Effects of complex 2 (RuH2O) on pancreatic ductal adenocarcinoma (PDAC) cells.
FIG. 18. […] Western blot analysis of the expression of c-MYC in cultures 24 and 48 h after treatment with RuH2O.
On one hand, the inventors analyzed if complex 2 may increase c-MYC expression in pancreatic CSCs, and on the other hand, if the increase in c-MYC expression would negatively affect the CSC phenotype, for example, CSC self-renewal capacity. […] After having achieved a substantial increase in c-MYC expression, it was then analyzed if the CSC self-renewal capacity was affected. To that end, briefly the PDAC cells were pre-treated twice with complex 2 (RuH2O) at a concentration of 100 and 250 μM before establishing sphere cultures in […] as described in Cioffi M (Cioffi M et al. 2015 Gut 12: 1936-1948). The spheres were again treated on day 4 after sphere formation.

[3] = tested on: Panc185 and PancA6L cells; experiment: ToxiLight BioAssay cytotoxicity (adenylate kinase release); type: cell-based
Method: FIG. 20. Cytotoxic effects of RuH2O on PDAC cultures. Relative cell death was determined in adherent cultures (low in CSC) and spheres (rich in CSC) of Panc185 (A) and PancA6L (B) at 24, 48, and 72 hours after treatment with the indicated doses of RuH2O.
It was then studied if the […] c-MYC expression and the phenotype and transcriptional changes observed were cytotoxic. For this analysis, the ToxiLight™ BioAssay kit, a bioluminescent, non-destructive cytolysis assay kit designed for measuring the adenylate kinase (AK) enzyme released from damaged cells (FIG. 20), was used. Adherent cultures (low in CSC) and cultured spheres (rich in CSC) were treated with increasing doses of RuH2O and cytotoxicity was measured 24, 48, and 72 hours after treatment. In adherent cultures and in both assayed cell lines, toxicity was only observed at 72 hours (3-fold increase in dead cells) when the cells were treated with 250 μM of RuH2O.

[4] = tested on: Panc185 and PancA6L cells; experiment: Annexin V / DAPI staining of PDAC cells; type: cell-based
Method: FIG. 21. Cytotoxic effects of RuH2O on PDAC sphere cultures. Light micrographs and annexin-V staining of Panc185 and PancA6L cells after 72 hours of treatment with 100 μM of RuH2O.
FIG. 24. Induction of apoptosis in PDAC cells. Annexin-V staining of PDAC cells treated for 48 hours with 100 or 250 μM of RuH2O.
The effect of 100 μM of RuH2O on cultures rich in CSC was confirmed at the microscopic level and by measuring annexin V staining. […] Cell viability determined by the percentage of DAPI negative cells dropped by 50%.
To rule out the possibility that the effects mentioned above arise as a result of unspecific cytotoxic effects, adherent cultures (low in CSC) were treated for 48 hours with a single dose of RuH2O (100 or 250 μM) and their subsequent clonogenicity, self-renewal, and tumorigenicity was checked. […] The treated and untreated cells were then trypsinized and the percentage of apoptotic cells was analyzed.

[5] = tested on: Panc185 cells; experiment: Tumorigenicity of pretreated PDAC cells injected subcutaneously into NOD-SCID mice; type: in vivo
Method: FIG. 22. Effects of RuH2O on PDAC sphere formation. (A) Work sequence of the experiment for evaluating the effect of RuH2O in PDAC CSC (B) Light micrographs of spheres derived from Panc185 and PancA6L cells after 10 days of treatment with 250 μM of RuH2O FIG. 23. Effects of RuH2O on PDAC tumorigenicity in vivo. Panc185 cells were pretreated with RuH2O before subcutaneous injection into NOD-SCID (non-obese diabetic, severe combined immunodeficiency) mice. Tumors were extracted 12 weeks after injection and analyzed. A) Photographs of the tumors extracted from NOD-SCID mice 12 weeks after being injected with 10^4 or 10^3 Panc185 cells and pretreated with control (CTL) or 250 μM of RuH2O. (B) Summary of the numbers of tumors detected per injection with 10^4 or 10^3 Panc185 cells and pretreated with control (CTL) or 250 μM of RuH2O. (C) Weights of the tumors extracted from NOD-SCID mice 12 weeks after being injected with 10^4 or 10^3 Panc185 cells and pretreated with control (CTL) or 250 μM of RuH2O.
FIG. 27. Tumorigenicity of PDAC cells after treatment with RuH2O. PDAC cells were treated with the indicated concentrations of RuH2O for 48 hours and then injected subcutaneously into NOD-SCID mice. Tumors were extracted 7 or 11 weeks after injection.
The spheres were then disassociated and equal numbers of control-treated cells and RuH2O-treated cells were injected subcutaneously into immunocompromised NOD-SCID mice to evaluate the tumorigenicity thereof. Twelve weeks after the injection, the tumors were extracted and weighed. […] While 4 out of 4 injections and 5 out of 6 injections with 10,000 and 1,000 control-treated cells, respectively, led to tumors, only 1 out of every 6 injections with 10,000 RuH2O-treated cells led to tumor. […] Furthermore, the only tumor that developed in the mouse injected with 10,000 RuH2O-treated cells weighed 53 times less than the tumors formed in control-treated mice (0.0058 g with respect to 0.3118 g).
(§1) The trypsinized cells were then: 1) placed in a plate at a low confluence to evaluate their clonogenicity (FIG. 25); 2) repeatedly cultured in ultra-low adherent plates in serum-free DMEM/F12 supplemented with B27 for intervals of 7 days to evaluate sphere formation capacity over multiple generations (FIG. 26); and 3) subcutaneously injected into NOD-SCID mice to check their tumorigenicity as described above (FIG. 27).
Finally, the tumorigenicity of sphere-rich CSCs was studied as described above.

[6] = tested on: Panc185 and PancA6L cells; experiment: Clonogenicity of PDAC cells; type: cell-based; conditions: adherent cultures treated 48 hours with 100 or 250 μM, 10 days in culture
Method: FIG. 25. Clonogenicity of PDAC cells after treatment with RuH2O. (Top) Light micrographs of Panc185 and PancA6L colonies formed after 10 days in culture. The colonies were visualized with crystal violet staining. (Bottom) Colony efficiency quantification. The colonies were lysed in PBS-1% Triton-X and color intensity was measured with a plate reader.
as §1

[Ru(terpy) (bpy)H2O]^2+ [complex 2]
GMP metallation, conversion to monoadduct 3 ([1]; 30 min at room temperature in the dark): 63% | GMP metallation, conversion to monoadduct 3 ([1]; 30 min irradiation at 455 nm): complete conversion | c-MYC protein expression ([2]; PDAC cells, 100 and 250 μM, 6, 12 or 24 hours): expression of c-MYC increased after treatment | c-MYC protein expression ([2]; PDAC cells, 100 and 250 μM, 6, 12 or 24 hours, listed as Complex 2): increases the expression of c-MYC | c-MYC protein expression ([2]; Panc185 and PancA6L cells, 100 μM, 24 hours after treatment): increased c-MYC protein expression | c-MYC protein levels ([2]; Panc185 and PancA6L cells, 48 hours after treatment): significant decrease in c-MYC protein levels | increase in dead cells ([3]; adherent cultures (low in CSC), both cell lines, 250 μM, 72 hours): 3 fold | toxicity (ToxiLight) ([3]; adherent cultures (low in CSC), single dose 100 or 250 μM, 48 hours): no toxicity was observed | cell death ([3]; spherical cultures (rich in CSC), 100 μM): induced cell death | percentage of apoptotic cells ([4]; adherent cultures, 100 or 250 μM, 48 hours): increase in the percentage of apoptotic cells was not observed | appearance of spheres, annexin V staining ([4]; spheres, 100 μM, 72 hours): visually smaller and apoptotic | drop of cell viability (percentage of DAPI negative cells) ([4]; spheres, 100 μM, 72 hours): 50% | tumor formation ([5]; 1,000 sphere-derived cells pretreated with 250 μM, NOD-SCID mice, 12 weeks): Tumors did not form | tumor weight, times less than control-treated ([5]; 10,000 pretreated cells, 12 weeks): 53 times | tumor weight ([5]; 10,000 pretreated cells, 12 weeks, the only tumor): 0.0058 g | tumorigenicity ([5]; adherent cultures treated 48 hours, injected subcutaneously into NOD-SCID mice, 7 or 11 weeks): prevents clonogenicity, self-regeneration, and tumorigenicity | clonogenicity [6]: prevents clonogenicity, self-regeneration, and tumorigenicity

Source: patent US11471467B2, “Ruthenium complexes for treating cancer which comprises cancer stem cells” (UNIVERSIDADE DE SANTIAGO DE COMPOSTELA, priority 2016, dated 2022)
